Experimental data reported in US10351547B2, “Somatostatin modulators and uses thereof” (priority 2016, dated 2019).
Read-outs that look alike come from different tables or passages of the source.

Biological target: human SSTR2 (Homo sapiens (Human), UniProt P30874)
Test: Human SSTR2 intracellular cAMP functional assay for agonists (HTRF)
Assay type: cell-based
Procedure, shortened: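 Cells bearing human SSTR2 exposed to compound for 20 minutes at 37 °C; after lysis, cAMP measured by time-resolved fluorescence (HTRF) and converted via a standard curve. EC50 calculated from cAMP versus compound concentration.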

[1] = CHO-K1 cells stably expressing human SSTR2, NKH477-stimulated cAMP, read-out: EC50 (inhibition of cAMP activities via human SST2R)

Chain of human SSTR2 (P30874 whole entry): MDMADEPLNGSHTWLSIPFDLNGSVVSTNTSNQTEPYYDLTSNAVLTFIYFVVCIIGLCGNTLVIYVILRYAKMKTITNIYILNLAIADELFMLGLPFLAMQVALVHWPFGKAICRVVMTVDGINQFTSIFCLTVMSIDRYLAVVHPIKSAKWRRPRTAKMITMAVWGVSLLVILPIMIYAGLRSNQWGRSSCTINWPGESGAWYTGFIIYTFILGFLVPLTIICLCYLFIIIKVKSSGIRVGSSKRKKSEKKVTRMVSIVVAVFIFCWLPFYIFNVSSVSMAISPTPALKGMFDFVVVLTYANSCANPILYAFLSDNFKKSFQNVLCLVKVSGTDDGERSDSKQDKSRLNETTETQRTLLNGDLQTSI

Compound	EC50 [1]	EC50
CCCNCC1CN(c2c(-c3cc(C)cc(F)c3)cnc3ccc(-c4cc(F)c5[nH]c(=O)[nH]c5c4)cc23)C1 [2-55, 4-fluoro-6-[3-(3-fluoro-5-methylphenyl)-4-{3-[(propylamino)methyl]azetidin-1-yl}quinolin-6-yl]-2,3-dihydro-1H-1,3-benzodiazol-2-one]	< 10 nM	
N#Cc1cccc(-c2ccc3ncc(-c4cc(F)cc(F)c4)c(N4CCC(N)CC4)c3c2)c1OCCCC(=O)O [2-57, 4-{2-[4-(4-aminopiperidin-1-yl)-3-(3,5-difluorophenyl)quinolin-6-yl]-6-cyanophenoxy}butanoic acid]		10 to 100 nM
COCCNCC1CN(c2c(-c3cc(C)cc(F)c3)cnc3ccc(-c4cc(F)cc(C#N)c4O)cc23)C1 [2-27, 3-[3-(3-fluoro-5-methylphenyl)-4-(3-{[(2-methoxyethyl)amino]methyl}azetidin-1-yl)quinolin-6-yl]-5-fluoro-2-hydroxybenzonitrile]	< 10 nM	
CON=Cc1cccc(-c2ccc3ncc(-c4cc(C)cc(F)c4)c(N4CCC(N)CC4)c3c2)c1O [2-115, 2-[4-(4-aminopiperidin-1-yl)-3-(3-fluoro-5-methylphenyl)quinolin-6-yl]-6-[(methoxyimino)methyl]phenol]	< 10 nM	
CON(C)C(=O)Nc1c(F)cc(F)cc1-c1ccc2ncc(-c3cc(C)cc(F)c3)c(N3CCC(N)CC3)c2c1 [2-198, 1-{2-[4-(4-aminopiperidin-1-yl)-3-(3-fluoro-5-methylphenyl)quinolin-6-yl]-4,6-difluorophenyl}-3-methoxy-3-methylurea]	< 10 nM	
Oc1c(F)cccc1-c1ccc2ncc(-c3cc(F)cc(F)c3)c(N3CC[C@H]4NCCO[C@@H]4C3)c2c1 (racemic) [2-144, trans-2-[3-(3,5-difluorophenyl)-4-{octahydro-1H-pyrido[3,4-b]morpholin-6-yl}quinolin-6-yl]-6-fluorophenol]	< 10 nM	
Cc1cc(F)cc(-c2cnc3ccc(-c4cc(F)cc(C#N)c4O)cc3c2N2CC(CN3CCOCC3)C2)c1 [2-35, 5-fluoro-3-[3-(3-fluoro-5-methylphenyl)-4-[3-(morpholin-4-ylmethyl)azetidin-1-yl]quinolin-6-yl]-2-hydroxybenzonitrile]		100 to 1000 nM
Cc1cc(F)cc(-c2cnc3ccc(-c4cc(F)cc(C#N)c4O)cc3c2N2CC(CNC3COC3)C2)c1 [2-33, 5-fluoro-3-[3-(3-fluoro-5-methylphenyl)-4-(3-{[(oxetan-3-yl)amino]methyl}azetidin-1-yl)quinolin-6-yl]-2-hydroxybenzonitrile]		10 to 100 nM
3-[4-(4-aminopiperidin-1-yl)-7-chloro-3-(3,5-dichlorophenyl)cinnolin-6-yl]-5-fluoro-2-hydroxybenzonitrile [1-27]	< 10 nM	
N#Cc1cnc(N2CCC2)c(-c2ccc3ncc(-c4cc(F)cc(F)c4)c(N4CCC(N)CC4)c3c2)c1 [2-75, 5-[4-(4-aminopiperidin-1-yl)-3-(3,5-difluorophenyl)quinolin-6-yl]-6-(azetidin-1-yl)pyridine-3-carbonitrile]	< 10 nM	
CS(=O)(=O)Nc1c(F)cc(F)cc1-c1ccc2ncc(-c3cc(F)cc(F)c3)c(N3CCC(N)CC3)c2c1 [2-86, N-{2-[4-(4-aminopiperidin-1-yl)-3-(3,5-difluorophenyl)quinolin-6-yl]-4,6-difluorophenyl}methanesulfonamide]		100 to 1000 nM
CCNCC1CN(c2c(-c3cc(C)cc(F)c3)cnc3ccc(-c4c(C)ccc(F)c4O)cc23)C1 [2-38, 2-(4-{3-[(ethylamino)methyl]azetidin-1-yl}-3-(3-fluoro-5-methylphenyl)quinolin-6-yl)-6-fluoro-3-methylphenol]	< 10 nM	
N#Cc1cccc(-c2cc3c(N4CCC(N)CC4)c(-c4cc(Cl)cc(Cl)c4)nnc3cc2Cl)c1O [1-11, 3-[4-(4-aminopiperidin-1-yl)-7-chloro-3-(3,5-dichlorophenyl)cinnolin-6-yl]-2-hydroxybenzonitrile]	< 10 nM	
COc1cc(F)cc(-c2cnc3ccc(-c4cccc(F)c4C=NO)cc3c2N2CCC(N)CC2)c1 [2-166, 1-(6-{3-fluoro-2-[(hydroxyimino)methyl]phenyl}-3-(3-fluoro-5-methoxyphenyl)quinolin-4-yl)piperidin-4-amine]	< 10 nM	
COC(=O)Nc1c(C#N)cc(F)c(F)c1-c1ccc2ncc(-c3cc(C)cc(F)c3)c(N3CCC(N)CC3)c2c1 [2-205]	< 10 nM	
CCONC(=O)Nc1c(F)cc(F)cc1-c1ccc2ncc(-c3cc(C)cc(F)c3)c(N3CCC(N)CC3)c2c1 [2-228, 1-{2-[4-(4-aminopiperidin-1-yl)-3-(3-fluoro-5-methylphenyl)quinolin-6-yl]-4,6-difluorophenyl}-3-ethoxyurea]	< 10 nM	
Cc1cc(Cl)cc(-c2nnc3ccc(-c4cc(F)c5[nH]c(=O)[nH]c5c4)cc3c2N2CCC(N)CC2)c1 [1-23, 6-[4-(4-aminopiperidin-1-yl)-3-(3-chloro-5-methylphenyl)cinnolin-6-yl]-4-fluoro-2,3-dihydro-1H-1,3-benzodiazol-2-one]	< 10 nM	

Compound	EC50 [1]	EC50
N#Cc1cccc(-c2ccc3ncc(-c4cc(F)cc(F)c4)c(N4CCC(N)CC4)c3c2)c1OC1COC1 [2-73, 3-[4-(4-aminopiperidin-1-yl)-3-(3,5-difluorophenyl)quinolin-6-yl]-2-(oxetan-3-yloxy)benzonitrile]		10 to 100 nM
NC1CCN(c2c(-c3cc(F)cc(F)c3)cnc3ccc(-c4ncccc4C=NO)cc23)CC1 [2-195, 1-[3-(3,5-difluorophenyl)-6-{3-[(hydroxyimino)methyl]pyridin-2-yl}quinolin-4-yl]piperidin-4-amine]	< 10 nM	
COC(=O)Nc1c(C#N)cccc1-c1ccc2ncc(-c3cc(F)cc(OC)c3)c(N3CCC(N)CC3)c2c1 [2-167, methyl N-{2-[4-(4-aminopiperidin-1-yl)-3-(3-fluoro-5-methoxyphenyl)quinolin-6-yl]-6-cyanophenyl}carbamate]	< 10 nM	
Cc1cc(F)cc(-c2cnc3ccc(-c4cccc(C#N)c4O)cc3c2N2CC(CN)C2)c1 [2-12, 3-{4-[3-(aminomethyl)azetidin-1-yl]-3-(3-fluoro-5-methylphenyl)quinolin-6-yl}-2-hydroxybenzonitrile]		10 to 100 nM
Cc1cc(F)cc(-c2cnc3ccc(-c4cn(C)nc4N)cc3c2N2CCC(N)CC2)c1 [2-211, 1-[6-(3-amino-1-methyl-1H-pyrazol-4-yl)-3-(3-fluoro-5-methylphenyl)quinolin-4-yl]piperidin-4-amine]	< 10 nM	
COCCNc1nn(C)cc1-c1ccc2ncc(-c3cc(C)cc(F)c3)c(N3CCC(N)CC3)c2c1 [2-229, 1-[3-(3-fluoro-5-methylphenyl)-6-{3-[(2-methoxyethyl)amino]-1-methyl-1H-pyrazol-4-yl}quinolin-4-yl]piperidin-4-amine]	< 10 nM	
COCC(C)(C)NCC1CN(c2c(-c3cc(C)cc(F)c3)cnc3ccc(-c4cc(F)cc(C#N)c4O)cc23)C1 [2-39, 5-fluoro-3-[3-(3-fluoro-5-methylphenyl)-4-(3-{[(1-methoxy-2-methylpropan-2-yl)amino]methyl}azetidin-1-yl)quinolin-6-yl]-2-hydroxybenzonitrile]		100 to 1000 nM
NC(=O)c1cc(F)cc(-c2ccc3nnc(-c4cc(Cl)cc(Cl)c4)c(N4CCC(NCCF)CC4)c3c2)c1 [1-33, 3-[3-(3,5-dichlorophenyl)-4-{4-[(2-fluoroethyl)amino]piperidin-1-yl}cinnolin-6-yl]-5-fluorobenzamide]	< 10 nM	
Cc1cc(F)cc(-c2cnc3ccc(-c4cccc(F)c4/C=N/O)cc3c2N2CC[C@@H](N)[C@@H](O)C2)c1 (racemic) [2-227, cis-4-amino-1-(6-{3-fluoro-2-[(hydroxyimino)methyl]phenyl}-3-(3-fluoro-5-methylphenyl)quinolin-4-yl)piperidin-3-ol]	< 10 nM	
Cc1cc(F)cc(-c2cnc3ccc(-c4cc(F)cc(C#N)c4O)cc3c2N2CC(CN)C2)c1 [2-17, 3-{4-[3-(aminomethyl)azetidin-1-yl]-3-(3-fluoro-5-methylphenyl)quinolin-6-yl}-5-fluoro-2-hydroxybenzonitrile]	10 to 100 nM	
CONC(=O)Nc1ccc(C#N)cc1-c1ccc2ncc(-c3cc(C)cc(F)c3)c(N3CCC(N)CC3)c2c1 [2-222]	< 10 nM	
CONC(=O)Nc1cc(F)cc(-c2ccc3ncc(-c4cc(C)cc(F)c4)c(N4CCC(N)CC4)c3c2)c1 [2-223, 1-{3-[4-(4-aminopiperidin-1-yl)-3-(3-fluoro-5-methylphenyl)quinolin-6-yl]-5-fluorophenyl}-3-methoxyurea]	< 10 nM	
COC(=O)Nc1c(Cl)cncc1-c1ccc2ncc(-c3cc(C)cc(F)c3)c(N3CCC(N)CC3)c2c1 [2-184, methyl N-{3-[4-(4-aminopiperidin-1-yl)-3-(3-fluoro-5-methylphenyl)quinolin-6-yl]-5-chloropyridin-4-yl}carbamate]	< 10 nM	
Cc1cc(F)cc(-c2nnc3cc(Cl)c(-c4cccc(C#N)c4O)cc3c2N2CCC(N)CC2)c1 [1-7, 3-[4-(4-aminopiperidin-1-yl)-7-chloro-3-(3-fluoro-5-methylphenyl)cinnolin-6-yl]-2-hydroxybenzonitrile]	< 10 nM	
COCOc1c(C#N)cccc1-c1ccc2ncc(-c3cc(F)cc(F)c3)c(N3CC[C@H](N)[C@H](OC)C3)c2c1 [2-62, 3-{4-[(3R,4S)-4-amino-3-methoxypiperidin-1-yl]-3-(3,5-difluorophenyl)quinolin-6-yl}-2-(methoxymethoxy)benzonitrile]	< 10 nM	
Cc1cc(F)cc(-c2cnc3ccc(-c4cccc(C#N)c4O)cc3c2N2CC[C@H]3NCCO[C@@H]3C2)c1 (relative stereo) [2-20]	< 10 nM	
Cc1cc(F)cc(-c2cnc3ccc(-c4cc(F)cc(C#N)c4O)cc3c2N2CC(CN3CC[C@@H](F)C3)C2)c1 [2-48, 5-fluoro-3-[3-(3-fluoro-5-methylphenyl)-4-(3-{[(3R)-3-fluoropyrrolidin-1-yl]methyl}azetidin-1-yl)quinolin-6-yl]-2-hydroxybenzonitrile]	< 10 nM	
